{"source": "patent US9040080B2", "about": "“Processing of heat-sensitive active agents” (SOUTHWEST RESEARCH INSTITUTE, priority 2008, dated 2015)", "key": {"[1]": {"test": "HPLC analysis of thermal degradation of brinzolamide in extruded fibers", "assay_type": "physicochemical", "conditions": "PLGA microspheres (40%) extruded with poly(caprolactone) (60%)", "excerpt": "The active ingredient brinzolamide was microencapsulated in two poly(lactic acid-co-glycolic acid) (PLGA) copolymers, one having a molar ratio of 75/25 (PLGA7525) and one having a molar ratio of 85/15 (PLGA 8515) as discussed further below. The theoretical amount of active agent was 40% by weight in each microencapsulation formulation. The two microsphere formulations were extruded with a lower melting point polymer, poly(caprolactone) (CAPA686), wherein the microspheres were present at 40% by weight and the poly(caprolactone) was present at 60% by weight, forming fibers incorporating the microcapsules therein."}, "[2]": {"test": "Drug degradation on direct melt processing (extrusion) with PLGA", "assay_type": "physicochemical", "conditions": "directly melt processed by extrusion with poly(lactic acid-co glycolic acid) at 75:25 and 85:15 molar ratios, 140° C.-160° C.", "protocol": "For example, about 5% drug degradation was found when brinzolamide, having a melting point in the range of 130-131° C. was directly melt processed by extrusion with poly(lactic acid-co glycolic acid) at 75:25 and 85:15 molar ratios. Melt processing temperatures of the poly(lactic-co glycolic acid) were in the range of 140° C.-160° C."}}, "data": [{"compound": "CCN[C@H]1CN(CCCOC)S(=O)(=O)c2sc(S(N)(=O)=O)cc21", "note": "[brinzolamide, (R)-(+)-4-Ethylamino-2-(3-methoxypropyl)-3,4-dihydro-2H-thieno[3,2-e]-1,2-thiazine-6-sulfonamide-1,1-dioxide]", "values": [{"measurement": "thermal degradation of brinzolamide in the fibers", "setting": "[1]", "result": "absence of thermal degradation"}, {"measurement": "drug degradation", "setting": "[2]", "result": "about 5%"}]}]}
